Experiments:
Type in all cases: cell-based
[1] = target: T1, Ba/F3 cells EML4-ALK L1196M/G1202R (variant 1) (Homo sapiens, UniProt Q9UM73, G1202R/L1196M); test: Ba/F3 cell proliferation assay, EML4-ALK L1196M/G1202R (variant 1); conditions: 72 hours, CellTiter-Glo
T1 construct: echinoderm microtubule-associated protein-like 4 (EML4) gene and the ALK tyrosine kinase domain; host or cells: Ba/F3 (RIKEN), retroviral pMSCV-puro; the other entry of the earlier key: EML4 (Q9HC35, Echinoderm microtubule-associated protein-like 4)
Description: (§1) Genes encoding CD74-ROS1 wild-type (wt), CD74-ROS1 G2032R, CD74-ROS1 S1986F, CD74-ROS1 L2026M, CD74-ROS1 D2033N, EML4-ALK wt (variant 1), EML4-ALK G1202R (variant 1), EML4-ALK L1196M/G1202R (variant 1), EML4-ALK G1202R/G1269A (variant 1), EML4-ALK G1202R/L1198F (variant 1), and TPM3-TRKA were synthesized at GeneRay, cloned into the retroviral construct pMSCV-puro (Biovector), and packaged into retroviral particles. The virus was used to infect Ba/F3 cells (RIKEN) at multiplicity of infection=1 for 1 day. Infected cells were rescued in media (RPMI-1640 with 10% fetal bovine serum and 1% streptomycin and penicillin) supplemented with mouse IL-3 (10 ng/mL) for 2 days, and stable cell lines were selected by IL-3 withdrawal and puromycin (0.8 μg/mL) for 7 days. Monoclones were selected by single-cell dilution in IL-3-free medium containing puromycin (0.8 μg/mL). Transformation of desired genes was confirmed by Sanger sequencing and western blot using the following antibodies: ROS1 (CST #3287), ALK (CST #3633), and pan-TRK (Abcam #76291).
(§2) Cell Proliferation Assay Stable cells were plated at 1,000 cells/well (40 μL) in a 384-well plate for 1 day.
(§3) Test compounds (40 nL) were then added in a 3-fold dilution series using the TECAN EVO200 liquid handler and incubated for 72 hours. Plates were equilibrated at room temperature for 15 minutes followed by addition of 40 μL CellTiter-Glo reagent (Promega).
(§4) Luminescence was measured on a plate reader. Half-maximal inhibitory concentration (IC50) was calculated from percent inhibition and inhibitor concentration using four-parameter logistic regression. […] (nd=not determined).

[2] = target: T2, Ba/F3 cells EML4-ALK wt (variant 1) (Homo sapiens, UniProt Q9UM73); test: Ba/F3 cell proliferation assay, EML4-ALK wt (variant 1); conditions: 72 hours, CellTiter-Glo
T2 construct: echinoderm microtubule-associated protein-like 4 (EML4) gene and the ALK tyrosine kinase domain; host or cells: Ba/F3 (RIKEN), retroviral pMSCV-puro; the other entry of the earlier key: EML4 (Q9HC35, Echinoderm microtubule-associated protein-like 4)
Description: as §1, §2, §3, §4

[3] = target: T3, Ba/F3 cells CD74-ROS1 wild-type (wt) (Homo sapiens, UniProt P08922); test: Ba/F3 cell proliferation assay, CD74-ROS1 wild-type; conditions: 72 hours, CellTiter-Glo
T3 construct: fusion of the C-terminus of ROS1 with the N-terminus of various partner proteins; host or cells: Ba/F3 (RIKEN), retroviral pMSCV-puro; the other entry of the earlier key: CD74 (P04233, HLA class II histocompatibility antigen gamma chain)
Protocol: (§5) The virus was used to infect Ba/F3 cells (RIKEN) at multiplicity of infection=1 for 1 day. Infected cells were rescued in media (RPMI-1640 with 10% fetal bovine serum and 1% streptomycin and penicillin) supplemented with mouse IL-3 (10 ng/mL) for 2 days, and stable cell lines were selected by IL-3 withdrawal and puromycin (0.8 μg/mL) for 7 days. Monoclones were selected by single-cell dilution in IL-3-free medium containing puromycin (0.8 μg/mL).
as §2, §3, §4

Ba/F3 cells TPM3-TRKA = target: T4, Ba/F3 cells TPM3-TRKA (Homo sapiens, UniProt P04629); test: Ba/F3 cell proliferation assay, TPM3-TRKA; conditions: 72 hours, CellTiter-Glo, read-out: TPM3-NTRK1-wt IC50
T4 construct: host or cells: Ba/F3 (RIKEN), retroviral pMSCV-puro; the other entry of the earlier key: TPM3 (P06753, Tropomyosin alpha-3 chain)
Description: as §1, §2, §3, §4

[4] = system: TPM3-NTRK1-wt IC50 / primary target IC50 (e.g. CD74-ROS1-wt); test: TRKA selectivity in Ba/F3 cells (TRKA potency divided by primary target potency); conditions: for TPM3-NTRK1-wt/CD74-ROS1-G2032R selectivity ratio: TRKA potency / CD74-ROS1-G2032R potency; for TPM3-NTRK1-wt/CD74-ROS1-wt selectivity ratio: TRKA potency / CD74-ROS1-wt potency; for TPM3-NTRK1-wt/EML4-ALK-L1196M-G1202R selectivity ratio: TRKA potency / EML4-ALK-L1196M-G1202R potency; for TPM3-NTRK1-wt/EML4-ALK-wt selectivity ratio: TRKA potency / EML4-ALK-wt potency
Protocol: TRKA selectivity was calculated by dividing a compound's TRKA potency by its primary target potency (e.g. TPM3-NTRK1-wt IC50/CD74-ROS1-wt IC50). Compound selectivity can be interpreted by binning ratio values: bin A for very high selectivity, ratio >30-fold; bin B for high selectivity, ratio >10-fold; bin C for moderate selectivity, ratio ≥1; and bin D for low selectivity, ratio <1. […] (nd=not determined).

[5] = target: T5, Ba/F3 cells CD74-ROS1 G2032R (Homo sapiens, UniProt P08922, G2032R); test: Ba/F3 cell proliferation assay, CD74-ROS1 G2032R; conditions: 72 hours, CellTiter-Glo
T5 construct: fusion of the C-terminus of ROS1 with the N-terminus of various partner proteins; host or cells: Ba/F3 (RIKEN), retroviral pMSCV-puro; the other entry of the earlier key: CD74 (P04233, HLA class II histocompatibility antigen gamma chain)
Protocol: as §5, §2, §3, §4

T1 sequence (Q9UM73 with tags, fused parts or gaps L1196M/G1202R): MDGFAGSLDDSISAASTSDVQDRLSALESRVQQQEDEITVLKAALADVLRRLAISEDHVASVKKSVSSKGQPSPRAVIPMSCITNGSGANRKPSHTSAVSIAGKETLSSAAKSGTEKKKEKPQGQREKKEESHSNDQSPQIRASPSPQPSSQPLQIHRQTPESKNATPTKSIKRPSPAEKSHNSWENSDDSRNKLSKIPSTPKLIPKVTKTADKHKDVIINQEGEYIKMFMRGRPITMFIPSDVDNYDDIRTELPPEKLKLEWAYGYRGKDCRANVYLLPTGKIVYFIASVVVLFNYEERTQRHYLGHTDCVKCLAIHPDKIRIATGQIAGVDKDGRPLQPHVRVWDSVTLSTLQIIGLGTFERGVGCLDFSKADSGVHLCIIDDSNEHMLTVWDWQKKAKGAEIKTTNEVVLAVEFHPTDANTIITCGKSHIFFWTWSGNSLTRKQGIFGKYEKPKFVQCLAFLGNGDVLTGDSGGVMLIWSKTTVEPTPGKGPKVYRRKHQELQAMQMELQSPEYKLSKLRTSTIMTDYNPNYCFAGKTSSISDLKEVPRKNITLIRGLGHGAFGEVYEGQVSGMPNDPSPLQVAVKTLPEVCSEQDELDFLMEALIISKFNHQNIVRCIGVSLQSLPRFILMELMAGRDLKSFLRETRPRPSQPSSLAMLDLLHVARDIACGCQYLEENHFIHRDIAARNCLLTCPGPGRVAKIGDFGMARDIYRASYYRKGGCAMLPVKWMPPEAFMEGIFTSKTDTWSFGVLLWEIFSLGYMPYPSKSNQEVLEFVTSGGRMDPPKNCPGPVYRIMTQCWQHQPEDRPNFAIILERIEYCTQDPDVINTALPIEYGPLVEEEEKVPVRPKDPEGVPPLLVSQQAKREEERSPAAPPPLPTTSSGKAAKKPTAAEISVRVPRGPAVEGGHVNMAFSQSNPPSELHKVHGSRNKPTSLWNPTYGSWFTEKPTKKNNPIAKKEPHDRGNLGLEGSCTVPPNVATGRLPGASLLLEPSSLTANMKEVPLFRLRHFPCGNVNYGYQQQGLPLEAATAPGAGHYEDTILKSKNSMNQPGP
T4 sequence (P04629 510-796 limits assumed): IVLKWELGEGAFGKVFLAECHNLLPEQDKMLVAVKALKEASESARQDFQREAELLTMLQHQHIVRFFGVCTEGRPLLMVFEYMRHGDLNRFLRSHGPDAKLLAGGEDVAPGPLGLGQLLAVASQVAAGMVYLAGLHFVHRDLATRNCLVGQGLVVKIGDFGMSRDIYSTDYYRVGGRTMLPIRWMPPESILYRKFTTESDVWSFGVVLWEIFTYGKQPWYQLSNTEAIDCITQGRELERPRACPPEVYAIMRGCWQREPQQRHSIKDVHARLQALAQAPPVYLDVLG
T3 sequence (P08922 1883-2347 limits assumed): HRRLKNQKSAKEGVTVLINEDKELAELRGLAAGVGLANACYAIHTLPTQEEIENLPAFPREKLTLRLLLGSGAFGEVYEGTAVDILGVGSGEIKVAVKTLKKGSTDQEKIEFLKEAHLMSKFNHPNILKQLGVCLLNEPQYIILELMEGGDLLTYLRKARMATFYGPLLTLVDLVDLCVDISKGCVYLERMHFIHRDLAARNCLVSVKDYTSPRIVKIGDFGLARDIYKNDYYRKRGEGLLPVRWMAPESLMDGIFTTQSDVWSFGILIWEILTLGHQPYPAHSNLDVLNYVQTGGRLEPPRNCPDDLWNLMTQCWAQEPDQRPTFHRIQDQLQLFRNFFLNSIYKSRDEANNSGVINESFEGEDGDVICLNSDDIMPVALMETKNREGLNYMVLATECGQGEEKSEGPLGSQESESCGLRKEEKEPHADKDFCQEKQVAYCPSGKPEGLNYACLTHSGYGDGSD
T5 sequence (P08922 1883-2347 G2032R limits assumed): as the sequence (P08922 1883-2347 limits assumed) above, with G150R counted along it
T2 sequence (Q9UM73 with tags, fused parts or gaps): as the sequence (Q9UM73 with tags, fused parts or gaps L1196M/G1202R) above, with M635L, R641G counted along it

| Compound | IC50 [1] [nM] | IC50 [2] [nM] | IC50 [3] [nM] | IC50 (Ba/F3 cells TPM3-TRKA) [nM] | TPM3-NTRK1-wt/CD74-ROS1-G2032R selectivity ratio [4] | TPM3-NTRK1-wt/CD74-ROS1-wt selectivity ratio [4] | TPM3-NTRK1-wt/EML4-ALK-L1196M-G1202R selectivity ratio [4] | TPM3-NTRK1-wt/EML4-ALK-wt selectivity ratio [4] | IC50 [5] [nM] |
| --- | --- | --- | --- | --- | --- | --- | --- | --- | --- |
| C[C@H]1Oc2cc(cnc2N)-c2c(CC3CC3)noc2Cn2ncnc2-c2ccc(F)cc21 [Example 67, (19R)-3-(cyclopropylmethyl)-16-fluoro-19-methyl-5,20-dioxa-4,8,9,11,23-pentaazapentacyclo[19.3.1.0^2,^6.0^8,^12.0^13,^18]pentacosa-1(24),2(6),3,9,11,13,15,17,21(25),22-decaen-22-amine] | 50 to 500 | 0.1 to 50 | 0.1 to 50 | > 500 | A (bin A for very high selectivity, ratio >30-fold) | A (bin A for very high selectivity, ratio >30-fold) | C (bin C for moderate selectivity, ratio ≥1) | A (bin A for very high selectivity, ratio >30-fold) | 0.1 to 50 |
| Cc1nc2c(o1)-c1ccc(F)cc1[C@@H](C)Oc1cc(cnc1N)-c1c(c(C)nn1CC1CC1)C2 [Example 78, (19R)-3-(cyclopropylmethyl)-16-fluoro-5,10,19-trimethyl-11,20-dioxa-3 ,4,9,23-tetraazapentacyclo[19.3.1.0^2,^6.0^8,^12.0^13,^18]pentacosa-1(24),2(6),4,8(12),9,13,15,17,21(25),22-decaen-22-amine] | 50 to 500 | 0.1 to 50 | 0.1 to 50 | > 500 | A (bin A for very high selectivity, ratio >30-fold) | A (bin A for very high selectivity, ratio >30-fold) | A (bin A for very high selectivity, ratio >30-fold) | A (bin A for very high selectivity, ratio >30-fold) | 0.1 to 50 |
| Cc1nn(CC2CC2)c2c1Cn1nc(Cl)cc1-c1ccc(F)cc1[C@@H](C)Oc1cc-2cnc1N [Example 81, (19R)-10-chloro-3-(cyclopropylmethyl)-16-fluoro-5,19-dimethyl-20-oxa-3,4,8,9,23-pentaazapentacyclo[19.3.1.0^2,^6.0^8,^12.0^13,^18]pentacosa-1(24),2(6),4,9,ll,13,15,17,21(25),22-decaen-22-amine] | > 500 | 50 to 500 | 0.1 to 50 | > 500 | A (bin A for very high selectivity, ratio >30-fold) | A (bin A for very high selectivity, ratio >30-fold) | C (bin C for moderate selectivity, ratio ≥1) | A (bin A for very high selectivity, ratio >30-fold) | 0.1 to 50 |
| C[C@H]1Oc2cc(cnc2N)-c2c(cnn2CC2CC2)Cc2nn(C(F)F)nc2-c2ccc(F)cc21 [Example 91, (19R)-3-(cyclopropylmethyl)-10-(difluoromethyl)-16-fluoro-19-methyl-20-oxa-3,4,9,10,11,23-hexaazapentacyclo[19,3.1.0^2,^6.0^8,^12.0^13,^18]pentacosa-1(24),2(6),4,8,11,13,15,17,21(25),22-decaen-22-amine] | 0.1 to 50 | 0.1 to 50 | 0.1 to 50 | 50 to 500 | A (bin A for very high selectivity, ratio >30-fold) | A (bin A for very high selectivity, ratio >30-fold) | B (bin B for high selectivity, ratio >10-fold) | A (bin A for very high selectivity, ratio >30-fold) | 0.1 to 50 |
| Cc1nc2c(o1)-c1ccc(F)cc1C(C)Oc1cc(cnc1N)-c1c(c(Cl)nn1CC1CC1)C2 (stereo not drawn) [Example 93] | 50 to 500 | 50 to 500 | 0.1 to 50 | > 500 | A (bin A for very high selectivity, ratio >30-fold) | A (bin A for very high selectivity, ratio >30-fold) | B (bin B for high selectivity, ratio >10-fold) | A (bin A for very high selectivity, ratio >30-fold) | 0.1 to 50 |
| CCn1ncc2c1-c1cnc(N)c(c1)O[C@H](C)c1cc(F)ccc1-c1cc(Br)nn1C2 [Example 94, (19R)-10-bromo-3-ethyl-16-fluoro-19-methyl-20-oxa-3,4,8,9,23-pentaazapentacyclo[19.3.1.0^2,^6.0^8,^12.0^13,^18]pentacosa-1(24),2(6),4,9,11,13,15,17,21(25),22-decaen-22-amine] | 50 to 500 | 0.1 to 50 | 0.1 to 50 | 50 to 500 | A (bin A for very high selectivity, ratio >30-fold) | A (bin A for very high selectivity, ratio >30-fold) | C (bin C for moderate selectivity, ratio ≥1) | B (bin B for high selectivity, ratio >10-fold) | 0.1 to 50 |
| CCn1ccc2c1-c1cnc(N)c(c1)O[C@H](C)c1cc(F)ccc1-c1nn(C)nc1C2 [Example 102, (19R)-3-ethyl-16-fluoro-10,19-dimethyl-20-oxa-3,9,10,11,23-pentaazapentacyclo[19.3.1.0^2,^6.0^8,^12.0^13,^18]pentacosa-1(24),2(6),4,8,11,13,15,17,21(25),22-decaen-22-amine] | > 500 | 50 to 500 | 0.1 to 50 | > 500 | B (bin B for high selectivity, ratio >10-fold) | A (bin A for very high selectivity, ratio >30-fold) | C (bin C for moderate selectivity, ratio ≥1) | B (bin B for high selectivity, ratio >10-fold) | 50 to 500 |

Source: patent US12054498B2, “Heteroaromatic macrocyclic ether chemotherapeutic agents” (Nuvalent, Inc., priority 2020, dated 2024)
